Source: ChEMBL document CHEMBL5715949, “Discovery of a selective irreversible BMX inhibitor for prostate cancer” (ACS Chem Biol, 2013)

Legend:
[1] = molecular target: Phosphatidylinositol 4,5-bisphosphate 3-kinase catalytic subunit alpha isoform (Homo sapiens) (UniProt P42336); assay: Inhibition of PIK3CA (unknown origin) assessed as remaining activity at 1 uM by Kinome scan method relative to control
[2] = molecular target: Cyclin-dependent kinase 18 (Homo sapiens) (UniProt Q07002); assay: Inhibition of PCTK3 (unknown origin) assessed as remaining activity at 1 uM by Kinome scan method relative to control
[3] = molecular target: Serine/threonine-protein kinase PAK 2 (Homo sapiens) (UniProt Q13177); assay: Inhibition of PAK2 (unknown origin) assessed as remaining activity at 1 uM by Kinome scan method relative to control
[4] = molecular target: Mitogen-activated protein kinase 14 (Homo sapiens) (UniProt Q16539); assay: Inhibition of P38alpha (unknown origin) assessed as remaining activity at 1 uM by Kinome scan method relative to control
[5] = Antiproliferative activity against human RV-1 cells assessed growth inhibition incubated for 2 to 5 days by CellTiter-Glo assay; format: functional; conditions: time 2-5 day
[6] = tested on: Tyrosine-protein kinase ABL1 (Homo sapiens), P00519 [T315I]; assay: Inhibition of ABL1 T315I mutant (unknown origin) assessed as remaining activity at 1 uM by Kinome scan method relative to control
[7] = molecular target: RAC-alpha serine/threonine-protein kinase (Homo sapiens) (UniProt P31749); assay: Inhibition of AKT1 (unknown origin) assessed as remaining activity at 1 uM by Kinome scan method relative to control
[8] = molecular target: BMP-2-inducible protein kinase (Homo sapiens) (UniProt Q9NSY1); assay: Inhibition of BIKE (unknown origin) assessed as remaining activity at 1 uM by Kinome scan method relative to control
[9] = molecular target: Cyclin-dependent kinase 5 (Homo sapiens) (UniProt Q00535); assay: Inhibition of CDK5 (unknown origin) assessed as remaining activity at 1 uM by Kinome scan method relative to control
[10] = molecular target: Cyclin-dependent kinase 7 (Homo sapiens) (UniProt P50613); assay: Inhibition of CDK7 (unknown origin) assessed as remaining activity at 1 uM by Kinome scan method relative to control
[11] = molecular target: Casein kinase I isoform delta (Homo sapiens) (UniProt P48730); assay: Inhibition of CSNK1D (unknown origin) assessed as remaining activity at 1 uM by Kinome scan method relative to control
[12] = molecular target: Ephrin type-B receptor 2 (Homo sapiens) (UniProt P29323); assay: Inhibition of EPHB2 (unknown origin) assessed as remaining activity at 1 uM by Kinome scan method relative to control
[13] = molecular target: Fibroblast growth factor receptor 2 (Homo sapiens) (UniProt P21802); assay: Inhibition of FGFR2 (unknown origin) assessed as remaining activity at 1 uM by Kinome scan method relative to control
[14] = molecular target: Receptor-type tyrosine-protein kinase FLT3 (Homo sapiens) (UniProt P36888); assay: Inhibition of FLT3 (unknown origin) assessed as remaining activity at 1 uM by Kinome scan method relative to control
[15] = tested on: Receptor-type tyrosine-protein kinase FLT3 (Homo sapiens), P36888 [N841I]; assay: Inhibition of FLT3 N841I mutant (unknown origin) assessed as remaining activity at 1 uM by Kinome scan method relative to control
[16] = molecular target: Rhodopsin kinase GRK7 (Homo sapiens) (UniProt Q8WTQ7); assay: Inhibition of GRK7 (unknown origin) assessed as remaining activity at 1 uM by Kinome scan method relative to control
[17] = molecular target: Tyrosine-protein kinase JAK1 (Homo sapiens) (UniProt P23458); assay: Inhibition of JAK1 JH1 domain (unknown origin) assessed as remaining activity at 1 uM by Kinome scan method relative to control
[18] = molecular target: Tyrosine-protein kinase JAK1 (Homo sapiens) (UniProt P23458); assay: Inhibition of JAK1 JH2 domain (unknown origin) assessed as remaining activity at 1 uM by Kinome scan method relative to control
[19] = tested on: Phosphatidylinositol 4,5-bisphosphate 3-kinase catalytic subunit alpha isoform (Homo sapiens), P42336 [I800L]; assay: Inhibition of PIK3CA I800L mutant (unknown origin) assessed as remaining activity at 1 uM by Kinome scan method relative to control
[20] = molecular target: Phosphatidylinositol 5-phosphate 4-kinase type-2 gamma (Homo sapiens) (UniProt Q8TBX8); assay: Inhibition of PIP5K2C (unknown origin) assessed as remaining activity at 1 uM by Kinome scan method relative to control
[21] = molecular target: Serine/threonine-protein kinase PLK2 (Homo sapiens) (UniProt Q9NYY3); assay: Inhibition of PLK2 (unknown origin) assessed as remaining activity at 1 uM by Kinome scan method relative to control
[22] = molecular target: Serine/threonine-protein kinase D2 (Homo sapiens) (UniProt Q9BZL6); assay: Inhibition of PRKD2 (unknown origin) assessed as remaining activity at 1 uM by Kinome scan method relative to control
[23] = tested on: Proto-oncogene tyrosine-protein kinase receptor Ret (Homo sapiens), P07949 [V804M]; assay: Inhibition of RET V804M (unknown origin) assessed as remaining activity at 1 uM by Kinome scan method relative to control
[24] = molecular target: Proto-oncogene tyrosine-protein kinase ROS (Homo sapiens) (UniProt P08922); assay: Inhibition of ROS1 (unknown origin) assessed as remaining activity at 1 uM by Kinome scan method relative to control
[25] = molecular target: STE20/SPS1-related proline-alanine-rich protein kinase (Homo sapiens) (UniProt Q9UEW8); assay: Inhibition of STK39 (unknown origin) assessed as remaining activity at 1 uM by Kinome scan method relative to control
[26] = molecular target: Mitogen-activated protein kinase kinase kinase 7 (Homo sapiens) (UniProt O43318); assay: Inhibition of TAK1 (unknown origin) assessed as remaining activity at 1 uM by Kinome scan method relative to control
[27] = molecular target: Cytoplasmic tyrosine-protein kinase BMX (Homo sapiens, UniProt P51813); assay: Inhibition of Flag-tagged BMX (unknown origin) expressed in HEK293T cells pre incubated for 30 mins followed by ATP addition and measured after 20 mins by immunoprecipitate assay; format: cell-based
[28] = molecular target: Serine/threonine-protein kinase ULK3 (Homo sapiens) (UniProt Q6PHR2); assay: Inhibition of ULK3 (unknown origin) assessed as remaining activity at 1 uM by Kinome scan method relative to control
[29] = Induction of cell cycle arrest in human RV-1 cells assessed as accumulation of cells at G1 phase at 2.5 uM incubated for 5 days by propidium iodide staining based flow cytometric analysis (reference value: 59.7 %); format: functional; conditions: time 5 day
[30] = Induction of cell cycle arrest in human RV-1 cells assessed as accumulation of cells at G2/M phase at 2.5 uM incubated for 5 days by propidium iodide staining based flow cytometric analysis (reference value: 11.4 %); format: functional; conditions: time 5 day
[31] = Induction of cell cycle arrest in human RV-1 cells assessed as accumulation of cells at S phase at 2.5 uM incubated for 5 days by propidium iodide staining based flow cytometric analysis (reference value: 28.9 %); format: functional; conditions: time 5 day
[32] = Induction of cell cycle arrest in human RV-1 cells assessed as accumulation of cells at G2/M phase at 2.5 uM incubated for 5 days in presence of MK2206 by propidium iodide staining based flow cytometric analysis (reference value: 11.4 %); format: functional; conditions: time 5 day

Chain of Tyrosine-protein kinase JAK1 (Homo sapiens) (P23458 whole entry, the tested form may be a part, canonical isoform): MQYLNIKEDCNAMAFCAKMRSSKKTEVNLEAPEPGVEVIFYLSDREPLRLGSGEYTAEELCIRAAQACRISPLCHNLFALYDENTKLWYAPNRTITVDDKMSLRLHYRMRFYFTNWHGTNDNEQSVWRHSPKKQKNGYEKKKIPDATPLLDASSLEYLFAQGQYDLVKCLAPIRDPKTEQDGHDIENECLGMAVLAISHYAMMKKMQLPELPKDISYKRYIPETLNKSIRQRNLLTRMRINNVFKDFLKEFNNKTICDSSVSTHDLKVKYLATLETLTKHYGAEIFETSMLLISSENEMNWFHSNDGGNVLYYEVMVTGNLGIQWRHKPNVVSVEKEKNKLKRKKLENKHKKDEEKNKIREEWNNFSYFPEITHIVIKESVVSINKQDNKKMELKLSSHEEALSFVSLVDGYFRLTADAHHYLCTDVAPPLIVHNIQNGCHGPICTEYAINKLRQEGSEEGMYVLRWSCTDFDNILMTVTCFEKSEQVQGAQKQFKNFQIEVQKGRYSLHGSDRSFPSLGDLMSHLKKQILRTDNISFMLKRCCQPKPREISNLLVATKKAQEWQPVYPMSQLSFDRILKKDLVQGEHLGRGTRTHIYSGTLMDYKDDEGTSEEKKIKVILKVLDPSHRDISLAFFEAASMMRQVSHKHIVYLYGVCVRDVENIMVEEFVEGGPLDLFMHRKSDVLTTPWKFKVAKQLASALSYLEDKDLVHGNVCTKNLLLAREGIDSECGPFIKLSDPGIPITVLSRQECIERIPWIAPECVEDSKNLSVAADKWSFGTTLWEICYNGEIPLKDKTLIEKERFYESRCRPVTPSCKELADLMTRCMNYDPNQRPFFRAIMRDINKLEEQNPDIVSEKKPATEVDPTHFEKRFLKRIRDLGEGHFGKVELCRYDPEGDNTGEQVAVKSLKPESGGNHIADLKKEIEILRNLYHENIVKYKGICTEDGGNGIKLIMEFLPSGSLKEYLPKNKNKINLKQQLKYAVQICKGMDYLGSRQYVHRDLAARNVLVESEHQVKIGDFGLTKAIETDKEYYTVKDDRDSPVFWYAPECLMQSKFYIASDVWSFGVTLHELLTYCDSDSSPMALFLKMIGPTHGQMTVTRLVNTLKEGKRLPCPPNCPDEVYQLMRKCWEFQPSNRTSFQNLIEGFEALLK
Chain of Cyclin-dependent kinase 18 (Homo sapiens) (Q07002 whole entry): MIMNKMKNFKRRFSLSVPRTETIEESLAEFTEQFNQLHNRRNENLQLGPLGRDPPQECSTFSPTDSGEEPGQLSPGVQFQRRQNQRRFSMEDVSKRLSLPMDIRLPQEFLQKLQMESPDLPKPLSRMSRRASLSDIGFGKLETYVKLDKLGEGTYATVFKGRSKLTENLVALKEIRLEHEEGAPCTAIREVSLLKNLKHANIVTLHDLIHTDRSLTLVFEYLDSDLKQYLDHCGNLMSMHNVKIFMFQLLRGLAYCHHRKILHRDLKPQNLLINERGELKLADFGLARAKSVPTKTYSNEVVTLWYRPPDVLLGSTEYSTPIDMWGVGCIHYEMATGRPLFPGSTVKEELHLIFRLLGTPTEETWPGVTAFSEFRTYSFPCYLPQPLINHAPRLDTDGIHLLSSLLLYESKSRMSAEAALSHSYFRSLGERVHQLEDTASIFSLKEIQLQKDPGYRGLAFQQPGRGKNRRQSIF
Chain of Mitogen-activated protein kinase kinase kinase 7 (Homo sapiens) (O43318 whole entry): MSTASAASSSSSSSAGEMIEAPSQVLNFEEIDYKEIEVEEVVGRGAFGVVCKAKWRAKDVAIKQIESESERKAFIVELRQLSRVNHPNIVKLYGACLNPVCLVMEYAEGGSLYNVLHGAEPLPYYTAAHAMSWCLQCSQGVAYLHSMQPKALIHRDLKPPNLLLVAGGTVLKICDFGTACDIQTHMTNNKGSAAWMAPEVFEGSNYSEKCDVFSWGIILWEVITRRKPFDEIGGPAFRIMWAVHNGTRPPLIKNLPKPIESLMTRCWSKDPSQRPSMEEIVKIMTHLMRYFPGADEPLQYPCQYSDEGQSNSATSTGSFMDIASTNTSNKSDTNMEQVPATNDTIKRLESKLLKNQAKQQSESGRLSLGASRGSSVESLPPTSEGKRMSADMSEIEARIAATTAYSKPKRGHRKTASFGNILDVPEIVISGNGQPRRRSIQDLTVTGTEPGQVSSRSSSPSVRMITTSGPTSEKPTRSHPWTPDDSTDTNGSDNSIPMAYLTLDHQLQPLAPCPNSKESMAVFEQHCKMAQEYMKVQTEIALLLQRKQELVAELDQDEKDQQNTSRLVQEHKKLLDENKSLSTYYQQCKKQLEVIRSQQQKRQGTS
Chain of Fibroblast growth factor receptor 2 (Homo sapiens) (P21802 22-821 limits assumed): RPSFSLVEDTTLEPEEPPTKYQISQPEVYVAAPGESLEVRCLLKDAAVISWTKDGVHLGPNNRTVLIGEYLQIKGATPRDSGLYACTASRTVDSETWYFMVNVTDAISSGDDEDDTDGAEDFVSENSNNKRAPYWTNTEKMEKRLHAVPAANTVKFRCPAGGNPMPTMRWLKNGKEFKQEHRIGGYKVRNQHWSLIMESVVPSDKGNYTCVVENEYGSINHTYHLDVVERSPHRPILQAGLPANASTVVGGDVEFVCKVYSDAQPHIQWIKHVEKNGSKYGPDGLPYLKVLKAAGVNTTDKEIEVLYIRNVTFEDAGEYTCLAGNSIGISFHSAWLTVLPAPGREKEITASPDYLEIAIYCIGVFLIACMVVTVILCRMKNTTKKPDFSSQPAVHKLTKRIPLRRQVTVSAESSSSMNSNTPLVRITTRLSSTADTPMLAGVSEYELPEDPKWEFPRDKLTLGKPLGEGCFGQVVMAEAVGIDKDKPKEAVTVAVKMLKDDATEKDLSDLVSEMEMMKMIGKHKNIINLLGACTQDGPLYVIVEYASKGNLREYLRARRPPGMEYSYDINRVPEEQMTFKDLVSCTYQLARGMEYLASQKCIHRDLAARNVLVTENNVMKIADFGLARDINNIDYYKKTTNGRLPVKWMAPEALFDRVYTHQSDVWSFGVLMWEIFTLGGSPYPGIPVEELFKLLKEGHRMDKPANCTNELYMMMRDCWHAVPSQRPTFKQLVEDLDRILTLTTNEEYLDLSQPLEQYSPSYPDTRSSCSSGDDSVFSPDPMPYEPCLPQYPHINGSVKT
Chain of Cytoplasmic tyrosine-protein kinase BMX (P51813 whole entry): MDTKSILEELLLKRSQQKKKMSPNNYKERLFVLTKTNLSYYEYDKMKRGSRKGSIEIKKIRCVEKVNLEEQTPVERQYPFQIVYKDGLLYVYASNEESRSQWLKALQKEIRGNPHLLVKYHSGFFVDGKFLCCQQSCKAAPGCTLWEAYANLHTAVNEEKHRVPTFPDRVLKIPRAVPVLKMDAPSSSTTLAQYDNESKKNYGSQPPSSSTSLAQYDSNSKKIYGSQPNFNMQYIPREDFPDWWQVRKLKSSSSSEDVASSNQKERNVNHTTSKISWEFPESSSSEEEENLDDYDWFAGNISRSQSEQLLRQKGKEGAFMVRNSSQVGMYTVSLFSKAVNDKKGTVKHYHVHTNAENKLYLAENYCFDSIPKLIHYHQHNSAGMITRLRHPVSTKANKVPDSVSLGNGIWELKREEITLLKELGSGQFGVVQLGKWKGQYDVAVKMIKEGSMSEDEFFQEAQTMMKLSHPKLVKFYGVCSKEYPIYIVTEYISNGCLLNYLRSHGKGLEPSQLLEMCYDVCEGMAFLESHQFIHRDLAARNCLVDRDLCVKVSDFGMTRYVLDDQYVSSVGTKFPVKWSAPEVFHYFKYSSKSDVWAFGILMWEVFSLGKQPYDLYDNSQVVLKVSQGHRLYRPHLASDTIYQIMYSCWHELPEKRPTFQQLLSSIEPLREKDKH
Chain of Serine/threonine-protein kinase PAK 2 (Homo sapiens) (Q13177 whole entry): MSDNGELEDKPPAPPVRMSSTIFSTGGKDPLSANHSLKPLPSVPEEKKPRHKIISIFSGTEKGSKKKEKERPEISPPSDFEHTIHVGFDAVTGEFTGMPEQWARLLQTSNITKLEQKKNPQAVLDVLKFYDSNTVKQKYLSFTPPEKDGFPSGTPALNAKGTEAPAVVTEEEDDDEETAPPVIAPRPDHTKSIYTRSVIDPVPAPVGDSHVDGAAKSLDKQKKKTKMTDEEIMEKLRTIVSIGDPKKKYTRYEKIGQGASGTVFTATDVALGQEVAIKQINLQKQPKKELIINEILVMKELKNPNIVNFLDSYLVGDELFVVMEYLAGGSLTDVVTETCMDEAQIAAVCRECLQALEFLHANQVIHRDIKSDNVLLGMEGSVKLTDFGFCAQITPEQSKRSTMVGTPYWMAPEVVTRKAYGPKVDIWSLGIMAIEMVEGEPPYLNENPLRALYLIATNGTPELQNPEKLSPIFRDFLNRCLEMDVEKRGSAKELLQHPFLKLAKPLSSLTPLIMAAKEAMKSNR
Chain of Serine/threonine-protein kinase ULK3 (Homo sapiens) (Q6PHR2 whole entry): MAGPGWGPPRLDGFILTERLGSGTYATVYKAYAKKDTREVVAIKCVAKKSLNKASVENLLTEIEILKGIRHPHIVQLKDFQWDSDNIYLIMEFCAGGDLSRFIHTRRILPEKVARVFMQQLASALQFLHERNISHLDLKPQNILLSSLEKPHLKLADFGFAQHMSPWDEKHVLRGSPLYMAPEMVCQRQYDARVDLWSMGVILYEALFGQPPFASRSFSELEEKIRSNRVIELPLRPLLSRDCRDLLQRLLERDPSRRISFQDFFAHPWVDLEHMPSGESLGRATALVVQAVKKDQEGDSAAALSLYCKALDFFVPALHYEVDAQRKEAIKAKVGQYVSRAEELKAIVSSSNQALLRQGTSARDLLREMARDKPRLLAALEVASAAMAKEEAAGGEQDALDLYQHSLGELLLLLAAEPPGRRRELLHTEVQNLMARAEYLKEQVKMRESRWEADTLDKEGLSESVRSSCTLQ
Chain of Cyclin-dependent kinase 7 (Homo sapiens) (P50613 whole entry, canonical isoform): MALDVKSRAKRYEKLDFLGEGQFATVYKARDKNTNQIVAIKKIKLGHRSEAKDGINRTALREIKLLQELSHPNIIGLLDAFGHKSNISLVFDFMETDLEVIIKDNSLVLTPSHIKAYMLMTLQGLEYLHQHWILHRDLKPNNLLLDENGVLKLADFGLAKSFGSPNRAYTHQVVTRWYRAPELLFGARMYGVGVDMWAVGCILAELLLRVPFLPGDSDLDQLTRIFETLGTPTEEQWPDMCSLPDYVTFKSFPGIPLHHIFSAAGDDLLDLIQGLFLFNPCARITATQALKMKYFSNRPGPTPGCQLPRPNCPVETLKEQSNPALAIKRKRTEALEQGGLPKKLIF

Work on `C=CC(=O)Nc1cc(-n2c(=O)ccc3cnc4ccc(-c5ccc(NS(C)(=O)=O)cc5)cc4c32)ccc1C` yielded an Activity [1] of 68%, an Activity [2] of 83% and an Activity [3] of 78%. It also gave an Activity [4] of 98%, a GI50 [5] of 2.53 µM and an Activity [6] of 87%. It also gave an Activity [7] of 12%, an Activity [8] of 76% and an Activity [9] of 88%. For the same compound, the Activity [10] was 79%, the Activity [11] was 84% and the Activity [12] was 80%. For the same compound, the Activity [13] was 96%, the Activity [14] was 80% and the Activity [15] was 85%. The Activity [16] was 75%, the Activity [17] was 87% and the Activity [18] was 99%. The Activity [19] was 46%, the Activity [20] was 5.6% and the Activity [21] was 72%. It also gave an Activity [22] of 87%, an Activity [23] of 85% and an Activity [24] of 81%. The Activity [25] was 68%, the Activity [26] was 83% and the IC50 [27] was 0.138 µM. It also gave an Activity [28] of 80%, an Activity [29] of 70.3% and an Activity [30] of 9.1%. For the same compound, the Activity [31] was 20.6% and the Activity [32] was 11.5%.
